# Patent US6410556B1, “Modulators of protein tyrosine phosphateses (PTPases)” (Novo Nordisk A/S, priority 1999, dated 2002)
# Biological target: T1, truncated form of PTP1B (first 321 amino acids) (Homo sapiens, UniProt P18031)
# T1 construct: a truncated form of PTPI B (corresponding to the first 321 amino acids); made in house; host or cells: E. coli
# T1 sequence (P18031 1-321 limits assumed): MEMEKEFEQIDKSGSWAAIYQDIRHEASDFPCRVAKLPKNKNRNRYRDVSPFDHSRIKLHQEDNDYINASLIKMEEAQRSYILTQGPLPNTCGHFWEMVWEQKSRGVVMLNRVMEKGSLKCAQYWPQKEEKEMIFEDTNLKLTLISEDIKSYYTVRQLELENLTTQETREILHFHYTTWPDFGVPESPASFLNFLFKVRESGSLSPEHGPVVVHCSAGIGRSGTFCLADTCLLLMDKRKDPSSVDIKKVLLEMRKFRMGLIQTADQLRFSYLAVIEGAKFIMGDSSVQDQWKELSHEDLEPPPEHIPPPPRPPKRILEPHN
# Assay: Inhibition of PTP1B, p-nitrophenyl phosphate substrate, enzyme kinetic analysis
# Format: biochemical
# Conditions: truncated PTP1B expressed in E. coli; substrate p-nitrophenyl phosphate 0.16 to 10 mM; 50 mM HEPES pH 7.0; 25° C., 60 minutes
# Procedure: The compounds are evaluated for biological activity with a truncated form of PTPI B (corresponding to the first 321 amino acids), which was expressed in E. coli and purified to apparent homogeneity using published procedures well-known to those skilled in the art. The enzyme reactions are carried out using standard conditions essentially as described by Burke et al. (Biochemistry 35; 15989-15996 (1996)). The assay conditions are as follows. Appropriate concentrations of the compounds of the invention are added to the reaction mixtures containing different concentrations of the substrate, p-nitrophenyl phosphate (range: 0.16 to 10 mM—final assay concentration). The buffer used was 50 mM HEPES pH 7.0, 100 mM sodium chloride, 0.1% (w/v) bovine serum albumin, 5 mM glutathione, and 1 mM EDTA. The reaction was started by addition of the enzyme and carried out in microtiter plates at 25° C. for 60 minutes. The reactions are stopped by addition of NaOH. The enzyme activity was determined by measurement of the absorbance at 405 nm with appropriate corrections for absorbance at 405 nm of the compounds and p-nitrophenyl phosphate. The data are analyzed using nonlinear regression fit to classical Michaelis Menten enzyme kinetic models. Inhibition is expressed as Ki values in nM.
row,Structure (SMILES),Ki [µM]
1,"O=C(O)C(=O)Nc1sc2c(c1C(=O)O)CC(CN1Cc3c(O)cccc3C1=O)NC2 (stereo not shown) [Example 8, 5-(4-Hydroxy-1-oxo-1,3-dihydro-isoindol-2-ylmethyl)-2-(oxalyl-amino)-4,5,6,7-tetrahydro-thieno[2,3-c]pyridine-3-carboxylic acid]",0.25
2,"O=C(O)C(=O)Nc1sc2c(c1C(=O)O)CC(CNC1=NS(=O)(=O)c3ccccc31)NC2 (stereo not shown) [Example 10, 5-((1,1-Dioxo-1H-benzo[d]isothiazol-3-ylamino)methyl)-2-(oxalyl-amino)-4,5,6,7-tetrahydro-thieno[2,3-c]pyridine-3-carboxylic acid]",0.27
3,"O=C(O)C(=O)Nc1sc2c(c1C(=O)O)CCNC2CNC1=NS(=O)(=O)c2ccccc21 (stereo not shown) [Example 11, 7-((1,1-Dioxo-1H-benzo[d]isothiazol-3-ylamino)methyl)-2-(oxalyl-amino)-4,5,6,7-tetrahydro-thieno[2,3-c]pyridine-3-carboxylic acid]",0.24
4,"COc1cccc2c1C(=O)N(CC1Cc3c(sc(NC(=O)C(=O)O)c3C(=O)O)CN1)C2 (stereo not shown) [Example 12, 5-(7-Methoxy-1-oxo-1,3-dihydro-isoindol-2-ylmethyl)-2-(oxalyl-amino)-4,5,6,7-tetrahydro-thieno[2,3-c]pyridine-3-carboxylic acid]",0.57
5,"O=C(O)C(=O)Nc1sc2c(c1C(=O)O)CC(CNC(=O)C(=O)c1c[nH]c3ccccc13)NC2 (stereo not shown) [Example 36, 5-((2-(1H-indol-3-yl)-2-oxo-acetylamino)methyl)-2-(Oxalyl-amino)-4,5,6,7-tetrahydro-thieno[2,3-c]pyridine-3-carboxylic acid]",0.83
6,"CC(=O)N(Cc1ccc(Oc2ccccc2)cc1)C[C@@H]1NCCc2c1sc(NC(=O)C(=O)O)c2C(=O)O [Example 42, 7-(S)-((Acetyl-(4-phenoxy-benzyl)amino)methyl)-2-(oxalyl-amino)-4,5,6,7-tetrahydro-thieno[2,3-c]pyridine-3-carboxylic acid]",0.22
7,"COC(=O)c1cc(OC)cc2c1CN(CC1Cc3c(sc(NC(=O)C(=O)O)c3C(=O)O)CN1)C2=O (stereo not shown) [Example 46, 5-(6-Methoxy-4-methoxycarbonyl-1-oxo-1 ,3-dihydro-isoindol-2-ylmethyl)-2-(oxalyl-amino)-4,5,6,7-tetrahydro-thieno[2,3-c]pyridine-3-carboxylic acid]",0.3
